The values below come from US4946995A, “Process for the production of thiocarbohydrazide” (Mobay Corporation, priority 1989, dated 1990).

The conditions of series [1]: footnote of Table 2, cited from earlier work.
The nature of series [2]: solubility of HDTC in alcohols. To be noted: alcohols (methanol, ethanol and isopropanol). In kind it is physicochemical. How it is done:
The HDTC may be made by any of the methods known to those in the art. One relatively simple method for producing HDTC in quantitative yields is to react carbon disulfide with hydrazine in a molar ratio of 1:2 in an alcohol at 0°-30° C. Appropriate alcohols include methanol, ethanol and isopropanol. […] If hydrazine hydrate is used to produce the HDTC, the water present in the alcohol upon completion of the reaction may be removed by distillation.

Read-outs that look alike come from different tables or passages of the source.

Consider `CCN(CC)CC` [TEA, triethylamine], for which the pKb in series [1] (pKb) was 3.35.

Take `CN(C)c1ccncc1` [DMAP, dimethylaminopyridine]: the pKb in series [1] (pKb) is listed as 4.3.

Regarding `NNC(=S)S` [HDTC, Hydrazinium-dithiocarbazinate], the solubility in alcohols entry in series [2] was “virtually insoluble”. On to `C1CN2CCN1CC2` [DABCO, diazabicyclooctane], for which the pKb is listed as 3.0 in series [1] (pKb) and 8.7 in series [1] (second printed pKb).
